In PubChem BioAssay (NCI):
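A five-concentration, 48-hour dose response in 96-well plates underlies each endpoint, interpolated linearly between surrounding concentrations. Here, GI50 denotes the concentration required for 50% inhibition of growth. The concentration for full growth arrest is given as TGI.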

What was measured:
Test in all cases: NCI-60 cell line screen, 48 h
[1] = test system: ACHN renal
[2] = test system: HCT-116 colon
[3] = test system: HOP-62 NSCLC
[4] = test system: IGROV1 ovarian
[5] = test system: NCI-H460 lung
[6] = test system: RXF 393 renal
[7] = test system: SK-MEL-5 melanoma
[8] = test system: SK-OV-3 ovarian
[9] = test system: SNB-75 CNS
[10] = test system: SR leukemia

| SMILES | TGI [1] | TGI [2] | TGI [3] | TGI [4] | TGI [5] | TGI [6] | TGI [7] | TGI [8] | TGI [9] | GI50 [1] | GI50 [4] | GI50 [5] | GI50 [7] | GI50 [8] | GI50 [9] | GI50 [10] | TGI [10] | GI50 [2] | GI50 [3] | GI50 [6] |
| --- | --- | --- | --- | --- | --- | --- | --- | --- | --- | --- | --- | --- | --- | --- | --- | --- | --- | --- | --- | --- |
| O[C@]12CCCC[C@H]1CCC2 | > 100 µM | > 100 µM | > 100 µM | > 100 µM | > 100 µM | > 100 µM | > 100 µM | > 100 µM | > 100 µM | – | – | – | – | – | – | – | – | – | – | – |
| Clc1cc(Cl)cc(N2N=C(c3cccc(Nc4ccncc4)c3)CC2c2ccc(Br)cc2)c1 (stereo not drawn) | 3.02 µM | – | – | 3.3 µM | 3.51 µM | – | 3.26 µM | 4.11 µM | 2.98 µM | 1.66 µM | 1.74 µM | 1.81 µM | 1.81 µM | 2.01 µM | 1.42 µM | 1.48 µM | 3.68 µM | – | – | – |
| CCOC(=O)[C@@H](C)C[C@H](Cc1ccccc1)NC(=O)c1csc([C@@H](C[C@H](C(C)C)N(C)C(=O)[C@H](CCC(C)C)NC(=O)[C@H]2CCCCN2C)OC(C)=O)n1 | – | 8.17 µM | 5.68 µM | 29.8 µM | 3.78 µM | – | 0.0927 µM | 9.26 µM | – | – | 0.00335 µM | 0.00407 µM | < 0.00333 µM | 0.00929 µM | – | < 0.00333 µM | 3.77 µM | 0.00424 µM | 0.00932 µM | – |
| CC(=O)O[C@@H]1CC(C)C2CC2C2=C(C(O)OC2O)[C@@H]1C(C)CCC=C(C)C (stereo partly drawn) | 90.5 µM | 32.7 µM | 56 µM | 51.1 µM | 38.3 µM | 34.8 µM | 60.6 µM | – | 76.1 µM | – | – | – | – | – | – | – | – | – | – | – |
| O=C1NC2(O)c3ccccc3C(=O)C2(O)N1c1ccccc1 (stereo not drawn) | – | > 100 µM | – | > 100 µM | > 100 µM | – | – | > 100 µM | > 100 µM | – | – | – | – | – | – | – | > 100 µM | – | – | – |
| C#CC[C@H](c1nc2cc(Cl)ccc2c(=O)n1Nc1ccccc1)N(CCCN)C(=O)c1cccc(Cl)c1F | 3.89 µM | 1.3 µM | 2.23 µM | 5.8 µM | 1.31 µM | 1.37 µM | 2.14 µM | 1.59 µM | 1.53 µM | 1.73 µM | 0.979 µM | 0.161 µM | 0.727 µM | 0.116 µM | 0.251 µM | – | – | 0.0403 µM | 0.842 µM | 0.284 µM |
| Cc1cc2c(c(C#N)c1C)NC(=O)C(CC(=O)O)C2=O (stereo not drawn) | > 100 µM | > 100 µM | > 100 µM | > 100 µM | > 100 µM | > 100 µM | > 100 µM | > 100 µM | > 100 µM | – | – | – | – | – | – | – | – | – | – | – |
| Cc1ccc(NC2=C(Sc3ccc(Cl)cc3)C(=O)N(Cc3ccccc3)C2=O)cc1Cl | 17.1 µM | 15 µM | 10.4 µM | 15.3 µM | 39.8 µM | – | 20.3 µM | 45.7 µM | 19.4 µM | 4.91 µM | 3.98 µM | 5.75 µM | 5.84 µM | 18.2 µM | 3.92 µM | 2.86 µM | 8.12 µM | 3.6 µM | 3.14 µM | – |
| Cl.Fc1c[c-]c(-c2ccccn2)c(F)c1.[Pt].c1ccc([PH+](CC[PH+](c2ccccc2)c2ccccc2)c2ccccc2)cc1 | 0.993 µM | – | 0.688 µM | – | – | 0.997 µM | 0.261 µM | 0.754 µM | 0.534 µM | 0.271 µM | – | – | 0.13 µM | 0.184 µM | 0.0234 µM | – | – | – | 0.186 µM | 0.214 µM |
